Biological target: T1, RhoC (Homo sapiens, UniProt P08134)
T1 construct: cDNAs corresponding to the complete open reading frame of RhoC were PCR amplified; expressed in transfected cells; host or cells: Saccharomyces cerevisiae strain EIS20-2B, pARC35B-derived expression plasmid integrated at LYS2, galactose-induced
Test: Yeast growth restoration assay (RhoC expressed in yeast, surrogate genetic assay)
Type: cell-based, mammalian
Conditions: retested in dilutions from 0.5 μM to 128 μM; 30° C., 40-42 hrs, OD600
Procedure: Compounds of the invention are assayed for activity using any convenient biochemical or biological assay. For example, one can examine compounds for binding to recombinantly-expressed RhoC, assay compounds for their ability to reverse a RhoC-induced phenotype in a heterologous cell (see e.g., WO99/24563, incorporated herein by reference), or using one or more of the experimental protocols described in the references cited herein. […] Compounds were also examined for inhibition of stress fibers, by stimulating NIH 3T3 cells with 10 μM LPA in DMEM+0.2% FBS in the presence of test compounds for 4 hours.
(A) cDNAs corresponding to the complete open reading frame of RhoC were PCR amplified from pooled total cDNAs initially synthesized from placental, fetal brain, and fetal liver poly(A)^+ mRNAs (Clontech Laboratories, Inc.). […]
After PCR, approximately 200 ng of amplified cDNA was cotransformed with approximately 100 ng of vector into yeast and transformants were selected for leucine prototrophy. […] Plasmids from at least three independent transformants were subsequently rescued into the E. coli strain DH5alpha via electroporation, and further characterized by restriction enzyme analysis and DNA sequencing of the RhoC open reading frame. […]

T1 sequence (P08134 whole entry): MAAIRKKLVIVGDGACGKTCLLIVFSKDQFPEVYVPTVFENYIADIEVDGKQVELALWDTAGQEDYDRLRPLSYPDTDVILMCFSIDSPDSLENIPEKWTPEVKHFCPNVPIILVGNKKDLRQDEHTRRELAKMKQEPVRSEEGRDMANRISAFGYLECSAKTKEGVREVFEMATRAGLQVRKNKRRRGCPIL

- potency / activity (growth restoration of RhoC-expressing yeast): only weak activity
Structure (SMILES): Cc1ccc(NS(=O)(=O)CSc2nc3ccccc3s2)cc1 [2-(4-methylphenylsulfamyl)methylthio-benzo[d]thiazole]

Source: patent US6642263B2, “Modulators of Rho C activity” (Iconix Pharmaceuticals Inc., priority 2001, dated 2003)
